Holding throughout (assay): growth of human tumour cells (NCI), 48 h
Test [1] has as its system OVCAR-8 ovarian.
The subject of test [2] is HCT-116 colon.
The test system of test [3] is M14 melanoma.
Test [4] relates to UACC-62 melanoma.
Test [5] has as its system T-47D breast.
In test [6] the test system is HS 578T breast.
For test [7], the system named is MALME-3M melanoma.
For test [8], the system named is MDA-MB-435.
Test [9] deals with NCI-H23 lung.
Test [10] concerns SF-268 CNS.

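How tested: cells in 96-well plates exposed to compound for 48 hours at five concentrations. Abbreviation: GI50, concentration required for 50% inhibition of growth. TGI denotes the concentration required for complete inhibition of growth.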 A value given as a limit tells only on which side of the number the result lay.

As to `COc1cc(C2CC(c3cccc(Nc4ccnc5cc(Cl)ccc45)c3)=NN2c2ccc(Cl)cc2)cc(OC)c1OC` (stereo unspecified), the GI50 in test [1] was 5.36 µM; in [2], 1.68 µM; in [3], 0.63 µM; in [4] it was 0.311 µM; in test [5] it was 0.687 µM; in test [6] it was 2.45 µM. Moreover, the GI50 is 21.9 µM in [7], 0.804 µM in [8], 17.5 µM in test [9] and 8.16 µM in test [10]. Further, the TGI in [1] was above 100 µM; in [2], above 100 µM; in [3], 13.8 µM; in [4] it was 19.9 µM; in test [5], above 100 µM; in test [6], 86.8 µM. The TGI in [7] is above 100 µM; in test [8], 6.58 µM; in test [9], above 100 µM; in [10], above 100 µM.

Take `O=c1oc2ccc(I)cc2c(=O)n1-c1ccc(F)cc1F`: the GI50 was 2.86 µM in [1]; 2.14 µM in [2]; 1.71 µM in test [3]; 1.31 µM in test [4]; 1.99 µM in test [5]; 2.04 µM in [6]. Besides, the GI50 in test [7] is 1.94 µM; in test [8], 2.87 µM; in test [9], 2.14 µM; in [10], 2.86 µM. Also, the TGI in test [1] turned out to be 13.2 µM; in test [2] it was 5.2 µM; in test [3], 5.88 µM; in test [4], 4.19 µM; in test [5], 6 µM; in [6], 6.55 µM. The TGI is 5.89 µM in test [7], 9.18 µM in [8], 7.94 µM in [9] and 27.1 µM in test [10].

Consider `BrC(Br)=C1C(=C(Br)Br)C(Br)C1Br` (stereo unspecified), for which the TGI was 5.46 µM in test [1]; 1.1 µM in [2]; 0.592 µM in [3]; 1.91 µM in test [4]; above 100 µM in [5]; 23.3 µM in test [6]. Moreover, the TGI in test [7] is 1.59 µM; in [8] it was 2.82 µM; in [9] it was 1.46 µM; in [10], 1.51 µM.

As to `C=C(CN1CCN(c2ccc(C(F)(F)F)cc2)CC1)c1ccc(C(=O)Nc2ccccc2N)cc1`, the GI50 is 6.95 µM in test [1]; 11.4 µM in [2]; above 90.5 µM in test [3]; 23 µM in test [4]; 21.8 µM in [5]; 22.6 µM in test [6]. The GI50 in test [7] was 19.3 µM; in test [8], above 25.2 µM; in [9], 9.49 µM; in test [10], 6.78 µM. Further, the TGI in test [1], in test [2], in test [3], in test [4], in test [5] and in test [6] was above 100 µM in each case. The TGI in test [7], in test [8], in [9] and in test [10] was above 100 µM each time.

Regarding `C=C1CC2(CC(c3ccccc3Cl)OC(c3ccccc3Cl)C2)OC1=O` (stereo unspecified), the TGI stood at 4.71 µM in [1]; 3.17 µM in test [2]; 3.39 µM in test [3]; 4.68 µM in test [4]; 3.22 µM in test [5]; 4.71 µM in [6]. For the same compound, the TGI worked out at 8.19 µM in test [7], 3.51 µM in test [8], 9.03 µM in [9] and 5.62 µM in test [10].

In the case of `Cc1c(-c2ccc(C3CCCCC3)cc2)nc2ccc(F)cc2c1C(=O)O`, the GI50 in test [1] was 0.123 µM; in test [2] it was 0.0508 µM; in test [3], 0.788 µM; in test [4] it was 0.205 µM; in test [5], 9.65 µM; in test [6], 34.8 µM. Further, the GI50 in test [7] was above 51.4 µM; in test [8], 0.322 µM; in test [9] it was 6.54 µM; in [10], 0.405 µM. The TGI in test [1], in test [2], in [3], in test [4], in test [5] and in [6] was above 100 µM each time. The TGI in test [7], in test [8], in [9] and in [10] was above 100 µM throughout.

Consider `C[C@@]1(C(=O)O)CCC[C@]2(C)C1CC[C@@]13C[C@@](O)(CC[C@]12O)[C@@]1(CO1)C3` (stereo partly specified), for which the GI50 in test [1], in test [2], in [3], in test [4], in [5] and in test [6] was above 100 µM throughout. Besides, the GI50 in test [7], in [8], in test [9] and in [10] was above 100 µM each time. The TGI in test [1], in test [2], in test [3], in test [4], in test [5] and in test [6] was above 100 µM in each case. Further, the TGI in test [7], in test [8], in [9] and in [10] was above 100 µM each time.

As to `NC(N)=NCC1CCCCCCN1` (stereo unspecified), the TGI in test [1], in test [2], in test [3], in [4], in [5] and in test [6] was above 100 µM in each case. The TGI in test [7], in test [8], in test [9] and in [10] was above 100 µM in each case.

Take `C[C@H]1/C(=C/C(=O)OCCN(C)C)CC[C@H]2[C@H]1C(=O)C[C@H]1C(C)(C)[C@@H](O)CC[C@]21C`: the TGI in [1], in test [2], in test [3], in test [4], in test [5] and in [6] was above 100 µM in each case. Besides, the TGI in [7], in test [8], in test [9] and in [10] was above 100 µM each time.

Take `O=C(CCl)NCCNc1nccc(Nc2ccc(S(=O)(=O)Nc3ccccn3)cc2)n1`: the GI50 in test [1] is 3.84 µM; in [2] it was 1.54 µM; in test [3] it was 1.72 µM; in test [4] it was 1.74 µM; in test [5], 1.9 µM; in test [6], 5.23 µM. The GI50 was 2.3 µM in [7], 1.96 µM in [8], 2.04 µM in test [9] and 2.63 µM in [10]. The TGI in test [1] was above 100 µM; in [2] it was 5.53 µM; in test [3], 4.69 µM; in test [4], 4.24 µM; in [5], 8.33 µM; in test [6], above 100 µM. Besides, the TGI in [7] was found to be 10.5 µM; in [8], 7.13 µM; in test [9] it was 6.11 µM; in [10], 12.9 µM.

Consider `CCCCCCCCCCCCCCCCCc1nccn1CCOCCO`, for which the GI50 in [1] is 5.64 µg/mL; in test [2], 5.94 µg/mL; in test [3], 6.69 µg/mL; in [4], 4.99 µg/mL; in test [5] it was 2.99 µg/mL; in test [6] it was 5.34 µg/mL. The GI50 is 6.5 µg/mL in test [7], 5.85 µg/mL in test [8], 4.73 µg/mL in test [9] and 5.16 µg/mL in test [10]. Further, the TGI in test [1] is 11.6 µg/mL; in test [2] it was 11.9 µg/mL; in test [3], 13 µg/mL; in test [4], 9.87 µg/mL; in [5] it was 8.99 µg/mL; in test [6] it was 12.7 µg/mL. In addition, the TGI in test [7] was found to be 13.2 µg/mL; in [8] it was 11.7 µg/mL; in test [9] it was 9.73 µg/mL; in [10] it was 10.4 µg/mL.

For the compound `O=C1/C(=C/c2ccccc2)CN(C(=O)C(Cl)Cl)C/C1=C\c1ccccc1`, the GI50 in test [1] was 0.442 µM; in test [2], 0.209 µM; in test [3], 0.622 µM; in test [4], 0.702 µM; in test [5], 1.19 µM; in test [6], 1.32 µM. The GI50 was 0.996 µM in test [7], 0.312 µM in test [8], 0.822 µM in [9] and 1.75 µM in test [10]. In addition, the TGI was determined as 1.68 µM in [1]; 0.527 µM in [2]; 2.15 µM in test [3]; 2 µM in [4]; 4.11 µM in test [5]; 6.86 µM in [6]. For the same compound, the TGI was 3.06 µM in [7], 1.03 µM in test [8], 2.73 µM in test [9] and 5.2 µM in test [10].

Take `COc1cc2c3cc1Oc1c(OC)c(OC)cc4c1C(=NCC4)Cc1ccc(cc1)Oc1cc(ccc1O)C[C@H]3N(C)CC2`: the TGI in [1] was 32 µM; in [2] it was 26.8 µM; in [3], 29.8 µM; in test [4], 30.3 µM; in [5], 40.4 µM; in test [6], 63.7 µM. The TGI in test [7] is 18 µM; in test [8], 37.3 µM; in test [9] it was 44 µM; in test [10], above 100 µM.

As for `O=C(/C=C/c1ccc(Cl)cc1)c1ccccc(=O)c1O`, the TGI in test [1] was above 100 µM; in [2] it was 10.4 µM; in test [3], 20.1 µM; in [4], 6 µM; in test [5] it was 19.8 µM; in [6], 31.1 µM. The TGI in [7] was 5.22 µM; in [8], 20.8 µM; in test [9], 18.1 µM; in test [10], 36.2 µM.

For `O=c1[nH]c2ccccc2c2nc3ccccc3n12`, the TGI in test [1], in test [2], in [3], in [4], in test [5] and in test [6] was above 100 µM each time. Further, the TGI was 72.7 µM in test [7], above 100 µM in test [8], above 100 µM in test [9] and above 100 µM in [10].

For the compound `CC(=O)/C(=C/c1ccccc1)C(=O)CC(C)C`, the GI50 in [1] was 17.6 µM; in [2], 2.05 µM; in [3] it was 10.8 µM; in test [4], 6.54 µM; in test [5], 24 µM; in test [6] it was 3.89 µM. In addition, the GI50 in test [7] was 16.7 µM; in test [8], 2.44 µM; in test [9], 18.4 µM; in test [10], 14.3 µM. In addition, the TGI in [1] stood at 53 µM; in test [2], 3.97 µM; in [3] it was 24.3 µM; in test [4], 20.9 µM; in test [5], 91.9 µM; in [6], 21.2 µM. In addition, the TGI in test [7] amounted to 37.3 µM; in test [8], 7.72 µM; in test [9], 43.1 µM; in test [10] it was 33 µM.

Regarding `CCCCOC(=O)c1ccc(N)cc1`, the GI50 in [1] was above 100 µM; in test [2], 90 µM; in [3], 41.1 µM; in [4], 17.9 µM; in test [5], 47.6 µM; in test [6] it was 96.1 µM. Also, the GI50 in test [7] was above 100 µM; in test [8], 34.9 µM; in [9], above 100 µM; in test [10], 71.1 µM. For the same compound, the TGI in test [1], in test [2], in [3], in [4], in test [5] and in [6] was above 100 µM in each case. In addition, the TGI in test [7], in test [8], in [9] and in test [10] was above 100 µM throughout.

`O=C(O)[C@H](Cc1c[nH]c2ccccc12)N1C(=O)c2ccccc2C1=O`: the GI50 in test [1] is above 100 µM. Moreover, the TGI in test [1], in [2], in test [3], in [4], in test [5] and in test [6] was above 100 µM in each case. The TGI in test [7], in test [8], in test [9] and in test [10] was above 100 µM each time.
